These results are taken from patent US6818656B2, “Method and composition for treatment of irritable bowel disease” (University of Florida, priority 2001, dated 2004).

Series [1] deals with stress-induced fecal output. The series can be described thus: Psychological stress-induced (water avoidance) IBS model, SC administration. To be noted: 57.8 μmol/kg SC; experiment stopped after 2 h, results after 2 h. Type of series: in vivo.
In series [2] the test system is stress-induced fecal output. The description is as above. The format is in vivo. To be noted: for mortality of rats after drug administration: ~24 h post-dosing. The source says: (§1) For drug preparation and administration, the compounds were put into solution with sterile normal saline and sonicated briefly, if necessary. The drugs were made up at concentrations such that the rats received the drugs PO or SC at the rate of 1 cc per kilogram. Mice received the CHX(3,4,3)-trans IP at 1 cc per 100 grams. The solutions were made fresh the day of the study. Control animals received an equivalent amount of saline PO or SC.
Animal care and experimental procedures were approved by the Institutional Animal Care and Use Committee. Male Sprague-Dawley rats (250-350 g, Harlan Sprague-Dawley, Indianapolis, Ind.) were housed in polycarbonate cages in a temperature- and humidity-controlled room with a 12-hour light/dark cycle. The experiments were performed at the same time of the day to decrease diurnal variability. A typical experiment involved 20 rats: 5 saline-treated controls and 5 pretreated with polyamine analogues at each of three doses as either a SC injection or a PO gavage. The rats in the SC studies and in one set of experiments involving PO administration were allowed ad libitum access to a standard rodent diet and tap water until the morning of the experiment. Stress was initiated 30 minutes post drug as described below. In another set of experiments involving PO administration, the animals were fasted overnight but were allowed free access to water. […] In a final experiment, non-stressed control rats were injected with saline SC and housed in individual polycarbonate cages. The fecal output (number of pellets) of the stressed and unstressed animals was recorded at 30-min intervals for a 6-h period, during which they received no food or water.
(§2) To initiate the stress, water was added to each cage to a depth of at least 4.5 cm, i.e., within 0.5 cm of the top of the Pyrex dish. To avoid contact with water, the rats stand on the glass dish for the 6 h of the study. Stool output was expressed as the total number of fecal pellets excreted over the 6-h collection period. Percent reduction was calculated by dividing the mean value from the treated animals (T) by the mean value from the control animals (C), subtracting the resulting quotient from 1.0, and multiplying by 100 [i.e., (1.0−T/C)×100].
(§3) A one-tailed t-test assuming unequal variance was performed on the stool output data of the treated vs control (0 mg/kg) animals for each compound. A value of P<0.05 was considered significant.
The psychological stress-induced IBS model involves subjecting the rats to an aversive stimulus (water) and observing the increase in fecal output over a period of time. […] Control rats received an equivalent amount of saline SC.

For series [3], the system named is castor oil-induced diarrhea. Conditions: cited from earlier work.
The test system of series [4] is stress-induced fecal output. The series can be described thus: Psychological stress-induced (water avoidance) IBS model, PO administration by gavage. The format is in vivo, rat. Conditions: 2.3 μmol/kg PO, non-fasted, stress 30 min post drug, 6-hr collection.
The nature of series [5]: Acute toxicity assessment, single intraperitoneal injection. The format is in vivo. The method, then:
For the acute toxicity assessment the CHX(3,4,3)-trans was administered to female CD-1 mice (Charles River, Wilmington, Mass.) as a single intraperitoneal (IP) injection. The animals were carefully observed post-dosing and were scored 2 h after administration of the drug.
as §1

Series [6] deals with stress-induced fecal output. In words: Psychological stress-induced (water avoidance) IBS model, PO administration by gavage. To be noted: 6-hr collection. Type of series: in vivo, rat.
Text: as §1
Animal care and experimental procedures were approved by the Institutional Animal Care and Use Committee. Male Sprague-Dawley rats (250-350 g, Harlan Sprague-Dawley, Indianapolis, Ind.) were housed in polycarbonate cages in a temperature- and humidity-controlled room with a 12-hour light/dark cycle. The experiments were performed at the same time of the day to decrease diurnal variability. A typical experiment involved 20 rats: 5 saline-treated controls and 5 pretreated with polyamine analogues at each of three doses as either a SC injection or a PO gavage. The rats in the SC studies and in one set of experiments involving PO administration were allowed ad libitum access to a standard rodent diet and tap water until the morning of the experiment. Stress was initiated 30 minutes post drug as described below. In another set of experiments involving PO administration, the animals were fasted overnight but were allowed free access to water. The animals were then stressed from ½ h to 2 h post-drug (data not shown). In a final experiment, non-stressed control rats were injected with saline SC and housed in individual polycarbonate cages. The fecal output (number of pellets) of the stressed and unstressed animals was recorded at 30-min intervals for a 6-h period, during which they received no food or water.
as §2, with “Once the drug had been administered, the animals were housed individually in polycarbonate cages containing a clear 70×50 mm Pyrex crystallization dish (Fisher, Pittsburgh, Pa.) inverted in the center and held in place with vacuum grease. To initiate” for “To initiate”
as §3
Because an orally active compound would be desirable for the treatment of IBS, selected analogues utilizing oral administration in the same model were assessed. In the initial studies animals were utilized that had been fasted overnight. Rodents were then given the drug of interest PO by gavage and stressed ½ h, 1 h, or 2 h post-drug. Unfortunately, because of the low baseline stool output in fasted control rats, the reductions in fecal output observed upon drug administration cannot be reported with any confidence (data not shown). Thereafter, only non-fasted animals were employed and were given the agents by gavage at doses of 11.6, 23.2, 57.8, or 115.6:mol/kg 30 minutes before initiating the stress. […] At doses of 11.6 and 23.2:mol/kg, CHX(3,4,3)-trans reduced stooling by about 80% (P=0.001 and <0.001, respectively). DEHSPM was effective at a dose of […]:mol/kg (40% diminution of fecal output; P<0.01), and DE(5,4,5) was active at doses of 23.2 and 57.8:mol/kg (55 and 73% reductions in fecal output, respectively; P<0.001 for both doses).

Setting [7] is: 2.3 μmol/kg SC, stress 30 min post drug, 6-h collection.
[8] abbreviates: 57.8 μmol/kg SC, listed as DBSPM.
[9] abbreviates: Rattus norvegicus, sc, 2 h, read-out: % Reduction.
The mark [10] stands for this setting: Rattus norvegicus, 2.3 μmol/kg SC, vs stressed controls, 6 h, read-out: % Reduction.

Turning to `CCCCNCCCNCCCCNCCCNCCCC` [Compound 5], the “Stool Output” value in series [1] is 0 ± 0 number of fecal pellets; in series [2] (setting [7]) it was 14.0 ± 4.8 number of fecal pellets; in series [2] (11.6 μmol/kg SC, experiment stopped after 2 h, results after 2 h), 0 ± 0 number of fecal pellets. Moreover, the “toxic effects observed in stressed rats” value is “^eDue to severe CNS toxicity, the experiment was stopped after 2 h; the results after 2 h are reported” in series [2] (11.6 μmol/kg SC); “severe neurotoxicity” in series [2] (11.6 μmol/kg SC, listed as DBSPM); “^eDue to severe CNS toxicity, the experiment was stopped after 2 h; the results after 2 h are reported” in series [2] (57.8 μmol/kg SC); “severe neurotoxicity” in series [2] (setting [8]). In series [2] (11.6 μmol/kg SC, experiment stopped after 2 h, results after 2 h, listed as DBSPM), the “% Reduction” value was “completely eliminated fecal output”. The results for the “mortality of rats after drug administration” value in series [2] (57.8 μmol/kg SC) and in series [2] (setting [8]) were “^fAll rats in this group died ˜24 h after drug administration” and “died within ˜24 h post-dosing”, respectively. For the same compound, the inhibition in vivo at 11.6 µmol/kg in series [2] (setting [9]) stood at 100%. For the same compound, the inhibition in vivo at 57.8 µmol/kg in series [2] (setting [9]) came out at 100%. In series [2] (setting [10]), the inhibition in vivo at 2.3 µmol/kg worked out at 39%. In addition, the “neurotoxicity in rats at subtherapeutic doses” value in series [3] (doses equivalent to a 5 mg/kg dose of DEHSPM) is recorded as “Signs of neurotoxicity”.
Consider `CCNCCCN[C@H]1CC[C@H](NCCCNCC)CC1` [Compound 12, N,N′-bis[3-(ethylamino)propyl]-trans-1,4-cyclohexanediamine], for which the “Stool Output” value in series [4] was 9.0 ± 1.6 number of fecal pellets; in series [2] (0.0726 μmol/kg SC, 6-h collection) it was 5.4 ± 2.1 number of fecal pellets; in series [2] (0.145 μmol/kg SC, 6-h collection) it was 2.2 ± 1.3 number of fecal pellets; in series [2] (0.29 μmol/kg SC, 6-h collection), 0.6 ± 0.9 number of fecal pellets; in series [2] (0.58 μmol/kg SC, 6-h collection), 0 ± 0 number of fecal pellets; in series [2] (1.16 μmol/kg SC, 6-h collection) it was 0 ± 0 number of fecal pellets. For the same compound, the “Stool Output” value is reported as 0 ± 0 number of fecal pellets in series [2] (setting [7]), 2.2 ± 1.3 number of fecal pellets in series [6] (11.6 μmol/kg PO) and 2.0 ± 1.9 number of fecal pellets in series [6] (23.2 μmol/kg PO). The acute toxicity entry in series [5] (IP, female CD-1 mice, single dose, scored 2 h) is reported as “about 150 mg/kg”. In addition, the “toxic doses (neurological signs)” value in series [5] (IP, single dose, mice) was no less than 125 mg/kg. Moreover, the “toxic dose in mice, allometrically scaled, relative to the 0.0625 mg/kg effective dose in rats” value in series [5] (mouse toxic dose vs rat dose of 0.0625 mg/kg) is “at least 1000 times”. The “signs of acute toxicity in mice” value in series [5] (toxic doses, mice) was “uncoordinated movements, intention tremors, and severe motor dysfunction, especially of the hind limbs”. Besides, the “toxic effects observed in stressed rats” value in series [2] (0.58 μmol/kg SC) is “^gToxic effects were evident, including huddling in the corner of the cage”; in series [2] (1.16 μmol/kg SC), “^gToxic effects were evident, including huddling in the corner of the cage”; in series [2] (2.3 μmol/kg SC) it was “^gToxic effects were evident, including huddling in the corner of the cage”. Besides, the “diminution in fecal output” value in series [2] (0.07 :mol/kg SC) stood at 50%. The inhibition in vivo at 0.0726 µmol/kg in series [2] (Rattus norvegicus, 0.0726 μmol/kg SC, vs stressed controls, 6 h, read-out: % Reduction) is 52%. Further, the inhibition in vivo at 0.145 µmol/kg in series [2] (Rattus norvegicus, 0.145 μmol/kg SC, vs stressed controls, 6 h, read-out: % Reduction) was found to be 80%. In series [2] (Rattus norvegicus, 0.29 μmol/kg SC, vs stressed controls, 6 h, read-out: % Reduction), the inhibition in vivo at 0.29 µmol/kg is 95%. The inhibition in vivo at 0.58 µmol/kg in series [2] (Rattus norvegicus, 0.58 μmol/kg SC, vs stressed controls, 6 h, read-out: % Reduction) came out at 100%. For the same compound, in series [2] (Rattus norvegicus, 1.16 μmol/kg SC, vs stressed controls, 6 h, read-out: % Reduction), the inhibition in vivo at 1.16 µmol/kg worked out at 100%. The inhibition in vivo at 2.3 µmol/kg in series [2] (setting [10]) is 100%. In series [2] (SC administration to stressed rats), the “activity at diminishing stress-induced fecal output (in words)” value is on record as “most effective against stress-induced stooling, regardless of the mode of administration”. Besides, the “dose needed to reduce fecal output of the stressed animals to that of the unstressed controls” value in series [2] (SC, rats) is recorded as 0.0625 mg/kg. Moreover, the “lowest dose that reduced stool output by >50% relative to the stressed controls” value in series [2] (SC, rats) is recorded as 0.03125 mg/kg. The “1 mg/kg neurotoxic dose relative to lowest dose reducing stool output by >50%” value in series [2] (rats, 1 mg/kg vs 0.03125 mg/kg) is listed as “greater than 30 times”. Moreover, the “doses at which signs of motor dysfunction, including seizures, were observed” value in series [3] (rats, rodent antidiarrheal model) was no less than 1 mg/kg. For the same compound, in series [3] (rodent), the “activity in castor oil-induced diarrhea model (in words)” value is reported as “most effective of the SPM analogues tested”.
